Reference: patent EP4806899A1, “FUSED RING DERIVATIVE, PREPARATION METHOD THEREFOR AND USE THEREOF IN MEDICINE” (Shanghai Qilu Pharmaceutical Research and Development …, priority 2023, dated 2025)

Assays:
[1] = added to existing treatment; within 3 months of treatment; cited from earlier work
[2] = Pharmacokinetic determination in monkeys after gavage administration (P.O.); type: in vivo, Cynomolgus monkeys (Macaca fascicularis); conditions: cynomolgus monkey, po, 1 mg/kg, plasma
Protocol: (§1) Cynomolgus monkeys (Macaca fascicularis) were used as test animals to study the pharmacokinetic behavior of the compounds of the present disclosure in plasma following gavage administration (P.O.). Plasma samples were collected at specific time points, compound concentrations in plasma were detected by LC-MS/MS, and pharmacokinetic parameters were calculated to reflect the pharmacokinetics in cynomolgus monkeys.
Cynomolgus monkeys, male, Ankaiyibo (Zhanjiang) Biotechnology Co., Ltd.
After administration to cynomolgus monkeys, venous blood samples of 0.3 mL were collected at 0.25, 0.5, 1, 2, 4, 8, and 24 hours and placed in EDTA-K2 test tubes. Plasma was separated by centrifugation at 4 °C, 4000 g for 5 minutes and stored at -80 °C.
• 1) 50 µL of plasma sample was precipitated by adding 200 µL of acetonitrile, vortex mixed, and centrifuged for 15 minutes. • 2) The processed supernatant was diluted with water and analyzed by LC/MS/MS to determine the concentration of the test compound.
(§2) Pharmacokinetic parameters were calculated using WinNonlin 8.3. Cmax represents the maximum plasma concentration, T1/2 represents the terminal elimination half-life, MRTInf represents the mean residence time, and AUC represents the area under the plasma concentration-time curve. Table 6 Pharmacokinetic Parameters of the Compounds of the Present Disclosure in Monkeys

in vivo = conditions: male, Sprague-Dawley, rat, plasma, po, 10 mg/kg
Protocol: Mice and rats were used as test animals to study the pharmacokinetic behavior of the compounds of the present disclosure in plasma following gavage administration (P.O.). Plasma samples were collected at specific time points, compound concentrations in plasma were detected by LC-MS/MS, and pharmacokinetic parameters were calculated to evaluate the pharmacokinetics.
Pharmacokinetic parameters were calculated using WinNonlin 8.3. […] Cmax represents the maximum plasma concentration, T1/2 represents the terminal elimination half-life, MRTInf represents the mean residence time, and AUC represents the area under the plasma concentration-time curve.

[3] = Pharmacokinetic determination in mice after gavage administration (P.O.); type: in vivo; conditions: male, CD-1, mouse, po, 10 mg/kg, plasma
Protocol: as §1, with “Mice and rats” for “Cynomolgus monkeys (Macaca fascicularis)”, “evaluate” for “reflect”, “pharmacokinetics.” for “pharmacokinetics in cynomolgus monkeys.”
• Mice, CD-1, male, Zhejiang Vital River Laboratory Animal Technology Co., Ltd. • Rats, Sprague-Dawley, male, Zhejiang Vital River Laboratory Animal Technology Co., Ltd., Shanghai Jihui Experimental Animal Breeding Co., Ltd.
After administration to mice and rats, venous blood samples of 0.03 mL and 0.2 mL, respectively, were collected at 0.0833 (IV), 0.25, 0.5, 1, 2, 4, 8, and 24 hours and placed in EDTA-K2 test tubes. Plasma was separated by centrifugation at 4 °C, 4000 g for 5 minutes and stored at -80 °C.
• 1) 10 µL of plasma sample was precipitated by adding 200 µL of acetonitrile, vortex mixed, and centrifuged for 15 minutes. • 2) The processed supernatant was diluted with water and analyzed by LC/MS/MS to determine the concentration of the test compound.
as §2, with “8.3. The pharmacokinetic parameters for mice P.O. are shown in Table 4, and for rats P.O. in Table 5.” for “8.3.”, “4” for “6”, “Mice” for “Monkeys”

human CYP11B2 enzyme = target: T1, human CYP11B2 enzyme (Homo sapiens, UniProt P19099); assay: Enzyme inhibition activity assay in G402 cells stably expressing human CYP11B2 (aldosterone production from 11-DOC, LC/MS); type: cell-based; conditions: 1 µM 11-DOC, 16 hours, aldosterone detected
T1 construct: the ORF of human CYP11B1 or CYP11B2 were transfected into G402 cells; expressed in transfected cells
T1 sequence (P19099 25-503): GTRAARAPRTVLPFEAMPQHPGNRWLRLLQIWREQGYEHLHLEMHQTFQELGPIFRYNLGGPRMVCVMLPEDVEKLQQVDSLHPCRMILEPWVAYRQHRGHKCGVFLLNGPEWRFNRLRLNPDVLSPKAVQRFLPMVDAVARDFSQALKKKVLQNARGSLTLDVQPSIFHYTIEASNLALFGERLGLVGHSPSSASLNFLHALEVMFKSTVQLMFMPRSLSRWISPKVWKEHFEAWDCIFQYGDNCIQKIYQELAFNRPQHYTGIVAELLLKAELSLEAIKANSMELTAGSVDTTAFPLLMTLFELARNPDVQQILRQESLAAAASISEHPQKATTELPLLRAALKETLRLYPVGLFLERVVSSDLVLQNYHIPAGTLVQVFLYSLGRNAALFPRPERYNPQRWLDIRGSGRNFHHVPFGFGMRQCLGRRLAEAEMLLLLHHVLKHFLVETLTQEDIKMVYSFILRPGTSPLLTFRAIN
Method in brief: (§3)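 G402 cells stably expressing human CYP11B2 or CYP11B1, preincubated 1 h with inhibitor in DMEM/F12 plus 2.5% charcoal-stripped FCS, then 16 h with 1 µM 11-DOC or 1 µM 11-DC. Aldosterone or cortisol quantified by LC/MS; IC50 from four-parameter logistic fit versus uninhibited control.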

human CYP11B1 enzyme = target: T2, human CYP11B1 enzyme (Homo sapiens, UniProt P15538); assay: Enzyme inhibition activity assay in G402 cells stably expressing human CYP11B1 (cortisol production from 11-DC, LC/MS); type: cell-based; conditions: 1 µM 11-DC, 16 hours, cortisol detected
T2 construct: the ORF of human CYP11B1 or CYP11B2 were transfected into G402 cells; expressed in transfected cells
T2 sequence (P15538 25-503): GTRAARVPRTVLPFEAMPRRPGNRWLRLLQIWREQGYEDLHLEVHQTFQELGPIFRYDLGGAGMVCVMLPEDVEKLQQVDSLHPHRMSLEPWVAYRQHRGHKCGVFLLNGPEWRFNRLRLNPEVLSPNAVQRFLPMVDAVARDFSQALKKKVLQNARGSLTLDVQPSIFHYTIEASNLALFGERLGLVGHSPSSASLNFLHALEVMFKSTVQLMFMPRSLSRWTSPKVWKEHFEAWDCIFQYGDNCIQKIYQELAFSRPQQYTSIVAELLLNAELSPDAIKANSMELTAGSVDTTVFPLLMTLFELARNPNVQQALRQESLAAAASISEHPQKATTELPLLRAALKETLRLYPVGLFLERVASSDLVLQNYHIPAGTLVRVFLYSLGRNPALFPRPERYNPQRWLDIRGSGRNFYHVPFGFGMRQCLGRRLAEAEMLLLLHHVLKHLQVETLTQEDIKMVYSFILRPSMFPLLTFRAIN
Method in brief: as §3

For CC(=O)S[C@@H]1CC2=CC(=O)CC[C@]2(C)[C@H]2CC[C@@]3(C)[C@@H](CC[C@@]34CCC(=O)O4)[C@H]12 [spironolactone], the “patients with resistant hypertension achieving effective control of blood pressure (systolic blood pressure <135 mm Hg)” value [1] is given as 60%.
In the case of CCC(=O)N[C@@H]1CCCc2c(-c3ccc4c(c3)CCC(=O)N4C)cncc21 [Control Compound, reference compound], the Cmax ([2]; male) is reported as 0.834 µM, the AUC(0-t) ([2]; male, read-out: AUC0-24) is reported as 6 µM·h and the AUC(0-t) (in vivo) is reported as 109 µM·h. The Cmax (in vivo) was 11.4 µM, the MRT inf (in vivo) was 6.41 h and the half-life (in vivo) was 4.31 h. It also gave a Cmax [3] of 12.2 µM, an MRT inf [3] of 3.59 h and a half-life [3] of 1.86 h. For the same compound, the AUC(0-t) ([3]; read-out: AUC0-24) was 57.3 µM·h.
For CCC(=O)N[C@@H]1CCOc2c(-c3ccc4c(c3)cc(C#N)n4C)cncc21 [Compound A10-P2], the IC50 (human CYP11B2 enzyme) was 1.8 nM, the IC50 (human CYP11B1 enzyme) was 316 nM and the Cmax ([2]; in vivo) was 3.28 µM. For the same compound, the MRT inf ([2]; in vivo) was 9.14 h, the half-life ([2]; in vivo) was 8.48 h and the AUC(0-t) at 24 h ([2]; in vivo, read-out: AUC0-24) was 29.1 µM·h.
